Measurements as given in patent US20150361063A1, “TREATMENT OF AMYLOIDOSIS BY COMPOUNDS THAT REGULATE RETROMER STABILIZATION” (Brandeis University, priority 2011, published 2015).

What was measured:
intact retromer complex = target: T1, intact retromer complex (Homo sapiens, UniProt Q96QK1+Q9UBQ0); test: fluorescence thermal stability assay with reconstituted retromer; assay type: binding
T1 construct: made in house
Excerpt: We set out to screen and identify compounds that stabilized the active retromer complex, thereby preventing VPS35 degradation and increasing the steady-state level of the complex, which may reduce toxic Abeta. To cast our net wider, we set out to perform virtual screening by docking first, and we were able to do that because crystal structures of several retromer components and, more importantly, the VPS35-VPS29 binary complex, had been published. […] After two years of trial and error in overcoming technical obstacles, we finally succeeded in expressing and purifying each of the individual retromer components separately, and then reconstituting the complete complex in vitro.
We then obtained tested, in a real fluorescence stability assay using our reconstituted retromer, a total of about 50 compounds from our list of the 200 “top hits” in the docking run. It should be noted that there are a total of 7 sites that were identified from the computational surface mapping approach, and we considered anything with a G-score below −7.00 to be in the “top hits”. Four of the sites contained almost all the top hits, so compounds were actually assayed only if they were in the top 200 by G-score and were predicted to bind well to one of these four sites.

animal models for cancer = settings: three different animal models for cancer; cited from earlier work
mice = settings: up to 30 mg/kg; cited from earlier work

## N=C(N)SCc1ccc(CSC(=N)N)s1 [compound 55712, [5-(carbamimidoylsulfanylmethyl)thiophen-2-yl]methyl carbamimidothioate]
Intact retromer complex; compounds from top docking hits of site 2 (VPS35-VPS29 interface)
  hit in actual experimental assays: positive hits
Intact retromer complex; increase in thermal stability, reconstituted retromer, FIG. 1
  stabilization of the intact retromer complex (thermal stability): 10 degrees Celsius
Animal models for cancer
  antitumor activity: no antitumor activity
mice
  toxicity to mice: not toxic
